Source: US4072685A, “3-(3',4'-Disubstituted) phenyl piperidines” (Roussel Uclaf, priority 1975, dated 1978)
Counter-ions that a name gives are not always drawn.

Assays:
reserpinic rigidity = test: Antagonism against reserpinic rigidity (electromyogram provoked by dorsiflexion of the foot); format: in vivo, rats; set-up: key to Antagonism against reserpine: expressed in an increasing number of + as a function of the dose in mg/Kg; ++: expressed in an increasing number of + as a function of the dose in mg/Kg; +++: expressed in an increasing number of + as a function of the dose in mg/Kg; conditions: for Antagonism against reserpine: i.v., rats; for Antagonism against reserpinic rigidity, in words: results of Table I, Examples 5, 6 and 7 at a dose of 20 mg/kg
Protocol: The antagonism of the tested products against reserpinic rigidity was determined in rats using the procedure of Jurna I: Arch. Pharmak. Exp. Path., Vol. 260 (1968), p. 80-88 and the electromyogram (EMG) provoked by a dorsiflexion of the foot was determined with electrodes placed on the muscles of the anterior loge of the hind foot of the animal. A dose of 10 mg/Kg of reserpine was administered intraveinously and 30 minutes later when the muscle hypertonicity was maximal, the tested product was administered intraveinously at a dose of 10 or 20 mg/Kg. The electromyogram responses were determined before and after the administration of the tested compound and were compared for their intensity and duration.

[1] = Acute toxicity (50% lethal dose); conditions: mouse, in vivo, ip, mice, mortality 48 hours after administration
Protocol: The 50% lethal dose (LD50) was determined for the products after intraperitoneal administration to mice and the mortality was determined 48 hours after the administration of the tested product.

[2] = test system: nigrostriatal bundle (dopaminergic activity); test: Rotating behavior after unilateral injury of nigrostriatal bundle, test (a): anodic lesion of right striatum; format: in vivo; conditions: i.p., male rats, 1 1/2 hours
Protocol: (§1) Among the animals having undergone a unilateral lesion of nigrostriatal bundle, the substances, having a dopaminergic activity induce a rotating behavior. The animals were male rats weighing about 250 g and female mice weighing about 22 g. The lesion was effected in test (a) in the right striatum of the male rats with a 2 mA anodic current for a duration of 30 seconds /Anden et al, Acta. Pharmacol. Toxicol., Vol. 24 (1966), p. 263-274/. The tested compounds were administered intraperitoneally to groups of 6 animals and they were individually placed in a rotometer which counted the number of rotations of each animal in two directions. Each test was continued for 11/2 hours.

[3] = test system: nigrostriatal bundle (dopaminergic activity); test: Rotating behavior after unilateral injury of nigrostriatal bundle, test (b): 6-hydroxydopamine lesion of substantia nigra; format: in vivo; conditions: i.p., male rats, 1 1/2 hours
Protocol: as §1
In test (b) with the male rats, lesion was effected in the substantia nigra of each rat with 6-hydroxydopamine monohydrochloride at a dose of 20 μg per 4 μl of physiological serum containing 0.2 mg/ml of ascorbic acid by the method of Ungerstedt /Acta. physiol. scand., 1971 a, supp 367, p. 69-93/and the same conditions as in (a) were used.

[4] = test system: nigrostriatal bundle (dopaminergic activity); test: Rotating behavior after unilateral injury of nigrostriatal bundle, test (c): striatum lesion by aspiration; format: in vivo; conditions: 100 mg/kg, i.p., female mice, observed for an hour
Protocol: as §1, with “Each test was continued for 11/2 hours.” left out
In test (c) with female mice, a lesion of the striatum was effected with a hypodermic needle with a diameter of 0.5 mm by aspiration under vacuum for 5 seconds with the method of Lotti /Life Science, Vol. 10 (1971) I, p. 781-789/.

carotid blood pressure = test: Hypotensive activity (carotid blood pressure, anesthetized rats); format: in vivo, male rats, Sprague-Dawley S.P.F.; conditions: i.v.
Protocol: The hypotensive activity was determined on male rats of the Sprague-Dawley S.P.F. strain weighing about 300 g and anesthesized with nembutal at an intraveinous dose of 50 mg/kg. The test product was administered intraveinously into the jugular vein and the carotid blood pressure was measured before and after the administration of the tested compound. The variation in the arterial pressure after the administration of the tested compound as compared to the initial arterial pressure as well as the time necessary for the pressure to return to the initial value were determined.

| SMILES | Antagonism against reserpine (reserpinic rigidity; 20 mg/kg) | LD50 at 48 h [1] [mg/kg] | rotations, test (a) ([2]; 25 mg/kg) | rotations, test (b) ([3]; 25 mg/kg) | Antagonism against reserpinic rigidity, in words (reserpinic rigidity) | other results |
| --- | --- | --- | --- | --- | --- | --- |
| CN1CCCC(c2ccc(O)c(O)c2)C1 (stereo not drawn) [Example 1, N-methyl-3-(3',4'-dihydroxyphenyl)-piperidine hydrobromide] | ++ | 150 | – | – | – | – |
| CC(=O)Oc1ccc(C2CCCN(C)C2)cc1OC(C)=O (stereo not drawn) [Example 2, N-methyl-3-(3',4'-diacetoxyphenyl)-piperidine oxalate] | ++ | 150 | – | – | – | – |
| CCN1CCCC(c2ccc(O)c(O)c2)C1 (stereo not drawn) [Example 3, N-ethyl-3-(3',4'-dihydroxyphenyl)-piperidine hydrobromide] | + | 150 | ipsilateral rotations | contralateral rotations | – | – |
| CCCN1CCCC(c2ccc(O)c(O)c2)C1 (stereo not drawn) [Example 4, N-propyl-3-(3',4'-dihydroxyphenyl)-piperidine hydrobromide] | + | 150 | – | – | – | – |
| Oc1ccc(C2CCCN(Cc3ccccc3)C2)cc1O (stereo not drawn) [Example 5, N-benzyl-3-(3',4'-dihydroxyphenyl)-piperidine oxalate] | +++ | 150 | ipsilateral rotation | contralateral rotations | very active | rotation, test (c) [4]: ipsilateral rotation |
| CC(=O)Oc1ccc(C2CCCN(Cc3ccccc3)C2)cc1OC(C)=O (stereo not drawn) [Example 6, N-benzyl-3-(3',4'-diacetoxyphenyl)-piperidine oxalate] | +++ | 300 | ipsilateral rotation | contralateral rotations | very active | duration of hypotension (carotid blood pressure; 10 mg/kg, hypotension of 20 to 30%): more than one hour; rotation, test (c) [4]: ipsilateral rotation |
| Oc1ccc(C2CCCN(CCc3ccccc3)C2)cc1O (stereo not drawn) [Example 7, N-(β-phenylethyl)-3-(3',4'-dihydroxyphenyl)-piperidine fumarate] | – | 150 | – | – | very active | duration of hypotension (carotid blood pressure; 0.1 mg/kg, hypotension of 5 to 10%): 10 min; hypotension (carotid blood pressure; 1 mg/kg): 30%; duration of hypotension (carotid blood pressure; 1 mg/kg, hypotension of 30%): more than an hour; Antagonism against reserpine (reserpinic rigidity; 10 mg/kg): ++; rotations, test (a) ([2]; 10 mg/kg): ipsilateral rotations; rotations, test (b) ([3]; 10 mg/kg): contralateral rotations |
| CCCN1CCCC(c2ccc(OC(C)=O)c(OC(C)=O)c2)C1 (stereo not drawn) [Example 8, N-propyl-3-(3',4'-diacetoxyphenyl)-piperidine oxalate] | ++ | 250 | ipsilateral rotations | contralateral rotations | – | – |
| CC(C)N1CCCC(c2ccc(O)c(O)c2)C1 (stereo not drawn) [Example 9, N-isopropyl-3-(3',4'-dihydroxyphenyl)-piperidine hydrobromide] | + | 150 | – | – | – | – |
| C=CCN1CCCC(c2ccc(O)c(O)c2)C1 (stereo not drawn) [Example 10, N-allyl-3-(3',4'-dihydroxyphenyl)-piperidine hydrobromide] | – | 150 | – | contralateral rotations | – | – |
